Values joined by “and” are separate entries in the source; they are usually repeats but may differ in a detail not shown here. Equal entries are not always repeated. Where two headings read alike, the source gives them in different places.
Columns and labels:
[1] = Pharmacokinetic profiling after oral dose in NZB/W F1 mice; assay type: in vivo, mouse; settings: for plasma Concentration, individual mouse / concentration at 3 h / concentration at 6 h / concentration at 24 h: 100 mg/kg po; for concentration at 3 h / concentration at 6 h / concentration at 24 h: female, NZB/W F1, mouse, plasma, oral, 100 mg/kg
Method: Cpd-7 was orally administered to 35-week-old female NZB/W F1 mice at 100 mg kg^−1 dissolved in 0.5 w/v% Methyl Cellulose 400 Solution (WAKO, Japan). Blood was collected over 24 h from the isoflurane-anesthetized mice via the jugular vein. The plasma samples were separated by centrifugation. Cpd-7 was extracted from the plasma samples by protein precipitation with methanol and measured using LC/MS/MS (HPLC: SHIMADZU CORPORATION, Japan; MS: AB Sciex Pte. Ltd., Japan). The lower limit of quantification was set at 5 ng/mL.

[2] = system: lupus-prone NZB/W F1 mice; experiment: Efficacy study in lupus-prone NZB/W F1 mice (proteinuria, survival, kidney histopathology); assay type: in vivo; settings: for proteinuria (urinary albumin/creatinine ratio), mean / Histological score (glomerular lesion), Mean: n = 6; for Histological score (glomerular lesion), individual mouse: 0–4 scale
Method: At the initiation of treatment, mice were randomly divided according to bodyweight and proteinuria level (urinary albumin/creatinine ratio over 300 mg g^−1) and were orally once or twice daily. […] During the treatment, nearly dead individuals were euthanized, then sera and kidneys were collected. In this case, the last known values for urinary protein was carried forward.
Urine protein was quantified by automatic analyzer (BioMajesty ZERO(JCA-ZS050), JEOL Ltd, Japan) with Mouse Urinary Albumin Assay Kit (S-type) (AKRAL-021S, Shibayagi Co.,Ltd., Japan). Urine creatinine levels were measured in the same samples. The urine albumin excretion rate is expressed as the ratio of albumin to creatinine. Time course of proteinuria were analyzed by Dunnett’s multiple-range test.
The both kidneys were fixed in 10% neutral-buffered formalin, embedded in paraffin, sectioned, stained with hematoxylin and eosin (HE) and periodic acid-Schiff (PAS), and examined by light microscopy. Glomerulonephritis was scored on a 0–4 scale, based on the intensity and extent of histopathological changes. A grade of 0 was given to kidney without glomerular lesions; a grade of 1 was given when there was minimal thickening of the mesangium; a grade of 2 was given when there was a noticeable increase in both mesangial and glomerular capillary cellularity; a grade of 3 was given when the preceding conditions were observed, along with superimposed inflammatory exudates and capsular adhesions; and a grade of 4 was given when the obliteration of the glomerular architecture included 70% of glomeruli. These classifications were used to grade 20 glomeruli within one area, and the mean glomerular histopathological score was calculated for each mouse. Data were analyzed by Tukey’s test.

[3] = 100 mg kg−1 po once or twice daily, four weeks

With `CCOc1nc(C)c2nc(-c3cncc(F)c3)n(Cc3ccc(CN4C[C@@H]5C[C@H]4CN5C)cc3)c2n1` [Cpd-7] the “plasma Concentration, individual mouse” value ([1]; 3 h) was 3240 ng/mL and 2770 ng/mL, the “plasma Concentration, individual mouse” value ([1]; 6 h) was 948 ng/mL and 525 ng/mL and the “plasma Concentration, individual mouse” value ([1]; 24 h) was 10 ng/mL and 7.55 ng/mL. For the same compound, the concentration at 3 h ([1]; 3 h, n = 3, read-out: plasma Concentration, Mean) was 2890 ng/mL, the concentration at 3 h ([1]; 3 h, read-out: plasma Concentration, individual mouse) was 2650 ng/mL and the concentration at 6 h ([1]; 6 h, n = 3, read-out: plasma Concentration, Mean) was 710 ng/mL. The concentration at 6 h ([1]; 6 h, read-out: plasma Concentration, individual mouse) was 658 ng/mL, the concentration at 24 h ([1]; 24 h, n = 3, read-out: plasma Concentration, Mean) was 8.63 ng/mL and the concentration at 24 h ([1]; 24 h, read-out: plasma Concentration, individual mouse) was 8.33 ng/mL. The oral availability ([1]; single 100 mg kg−1 po) was “orally available”, the “proteinuria (urinary albumin/creatinine ratio), mean” value ([2]; 100 mg kg-1 po B.I.D, 0 wk) was 1719.9 and the “proteinuria (urinary albumin/creatinine ratio), mean” value ([2]; 100 mg kg-1 po B.I.D, 1 wk) was 7204.5. For the same compound, the “proteinuria (urinary albumin/creatinine ratio), mean” value ([2]; 100 mg kg-1 po B.I.D, 2 wk) was 747.0, the “proteinuria (urinary albumin/creatinine ratio), mean” value ([2]; 100 mg kg-1 po B.I.D, 3 wk) was 150.9 and the “proteinuria (urinary albumin/creatinine ratio), mean” value ([2]; 100 mg kg-1 po B.I.D, 4 wk) was 121.0. The “proteinuria (urinary albumin/creatinine ratio), mean” value ([2]; 100 mg kg-1 po Q.D., 0 wk) was 1780.7, the “proteinuria (urinary albumin/creatinine ratio), mean” value ([2]; 100 mg kg-1 po Q.D., 1 wk) was 10042.5 and the “proteinuria (urinary albumin/creatinine ratio), mean” value ([2]; 100 mg kg-1 po Q.D., 2 wk) was 9132.2. The “proteinuria (urinary albumin/creatinine ratio), mean” value ([2]; 100 mg kg-1 po Q.D., 3 wk) was 6691.2, the “proteinuria (urinary albumin/creatinine ratio), mean” value ([2]; 100 mg kg-1 po Q.D., 4 wk) was 3804.5 and the “glomerular lesion scores vs vehicle” value ([2]; 100 mg kg−1 once or twice daily) was “significantly reduced”. For the same compound, the death/survival [2, 3] was “prevented death in all mice”, the proteinuria vs vehicle [2, 3] was “significant decrease in proteinuria” and the “Histological score (glomerular lesion), individual mouse” value ([2]; B.I.D. 100 mg kg-1) was 0 and 1. The Survival rate ([2]; B.I.D. 100 mg kg-1, day 0) was 100%, the Survival rate ([2]; B.I.D. 100 mg kg-1, day 1) was 100% and the Survival rate ([2]; B.I.D. 100 mg kg-1, day 2) was 100%. For the same compound, the Survival rate ([2]; B.I.D. 100 mg kg-1, day 3) was 100%, the Survival rate ([2]; B.I.D. 100 mg kg-1, day 4) was 100% and the Survival rate ([2]; B.I.D. 100 mg kg-1, day 5) was 100%. For the same compound, the Survival rate ([2]; B.I.D. 100 mg kg-1, day 6) was 100%, the Survival rate ([2]; B.I.D. 100 mg kg-1, day 7) was 100% and the Survival rate ([2]; B.I.D. 100 mg kg-1, day 8) was 100%. For the same compound, the Survival rate ([2]; B.I.D. 100 mg kg-1, day 9) was 100%, the Survival rate ([2]; B.I.D. 100 mg kg-1, day 10) was 100% and the Survival rate ([2]; B.I.D. 100 mg kg-1, day 11) was 100%. The Survival rate ([2]; B.I.D. 100 mg kg-1, day 12) was 100%, the Survival rate ([2]; B.I.D. 100 mg kg-1, day 13) was 100% and the Survival rate ([2]; B.I.D. 100 mg kg-1, day 14) was 100%. For the same compound, the Survival rate ([2]; B.I.D. 100 mg kg-1, day 15) was 100%, the Survival rate ([2]; B.I.D. 100 mg kg-1, day 16) was 100% and the Survival rate ([2]; B.I.D. 100 mg kg-1, day 17) was 100%. For the same compound, the Survival rate ([2]; B.I.D. 100 mg kg-1, day 18) was 100%, the Survival rate ([2]; B.I.D. 100 mg kg-1, day 19) was 100% and the Survival rate ([2]; B.I.D. 100 mg kg-1, day 20) was 100%. For the same compound, the Survival rate ([2]; B.I.D. 100 mg kg-1, day 21) was 100%, the Survival rate ([2]; B.I.D. 100 mg kg-1, day 22) was 100% and the Survival rate ([2]; B.I.D. 100 mg kg-1, day 23) was 100%. It also gave a Survival rate ([2]; B.I.D. 100 mg kg-1, day 24) of 100%, a Survival rate ([2]; B.I.D. 100 mg kg-1, day 25) of 100% and a Survival rate ([2]; B.I.D. 100 mg kg-1, day 26) of 100%. For the same compound, the Survival rate ([2]; B.I.D. 100 mg kg-1, day 27) was 100%, the Survival rate ([2]; B.I.D. 100 mg kg-1, day 28) was 100% and the “Histological score (glomerular lesion), Mean” value ([2]; B.I.D. 100 mg kg-1) was 0.3333. The “Histological score (glomerular lesion), individual mouse” value ([2]; Q.D. 100 mg kg-1) was 0 and 2 and 1 and 3, the Survival rate ([2]; Q.D. 100 mg kg-1, day 0) was 100% and the Survival rate ([2]; Q.D. 100 mg kg-1, day 1) was 100%. For the same compound, the Survival rate ([2]; Q.D. 100 mg kg-1, day 2) was 100%, the Survival rate ([2]; Q.D. 100 mg kg-1, day 3) was 100% and the Survival rate ([2]; Q.D. 100 mg kg-1, day 4) was 100%. For the same compound, the Survival rate ([2]; Q.D. 100 mg kg-1, day 5) was 100%, the Survival rate ([2]; Q.D. 100 mg kg-1, day 6) was 100% and the Survival rate ([2]; Q.D. 100 mg kg-1, day 7) was 100%. The Survival rate ([2]; Q.D. 100 mg kg-1, day 8) was 100%, the Survival rate ([2]; Q.D. 100 mg kg-1, day 9) was 100% and the Survival rate ([2]; Q.D. 100 mg kg-1, day 10) was 100%. For the same compound, the Survival rate ([2]; Q.D. 100 mg kg-1, day 11) was 100%, the Survival rate ([2]; Q.D. 100 mg kg-1, day 12) was 100% and the Survival rate ([2]; Q.D. 100 mg kg-1, day 13) was 100%. The Survival rate ([2]; Q.D. 100 mg kg-1, day 14) was 100%, the Survival rate ([2]; Q.D. 100 mg kg-1, day 15) was 100% and the Survival rate ([2]; Q.D. 100 mg kg-1, day 16) was 100%. For the same compound, the Survival rate ([2]; Q.D. 100 mg kg-1, day 17) was 100%, the Survival rate ([2]; Q.D. 100 mg kg-1, day 18) was 100% and the Survival rate ([2]; Q.D. 100 mg kg-1, day 19) was 100%. The Survival rate ([2]; Q.D. 100 mg kg-1, day 20) was 100%, the Survival rate ([2]; Q.D. 100 mg kg-1, day 21) was 100% and the Survival rate ([2]; Q.D. 100 mg kg-1, day 22) was 100%. For the same compound, the Survival rate ([2]; Q.D. 100 mg kg-1, day 23) was 100%, the Survival rate ([2]; Q.D. 100 mg kg-1, day 24) was 100% and the Survival rate ([2]; Q.D. 100 mg kg-1, day 25) was 100%. For the same compound, the Survival rate ([2]; Q.D. 100 mg kg-1, day 26) was 100%, the Survival rate ([2]; Q.D. 100 mg kg-1, day 27) was 100% and the Survival rate ([2]; Q.D. 100 mg kg-1, day 28) was 100%. The “Histological score (glomerular lesion), Mean” value ([2]; Q.D. 100 mg kg-1) was 1 and the “toxic signs in body weights or clinical signs” value ([2]; both treatment groups) was “no clear toxic signs”.
